In patent US12215354B2, “Differentiation of human embryonic stem cells into single hormonal insulin positive cells” (Janssen Biotech, Inc., priority 2011, dated 2025):

Test system: human embryonic stem cell line H1
Assay: Real-time PCR gene expression, dose of BMP inhibitor at S4 (Example 5)
Assay type: cell-based
Settings: 50 nM or 100 nM at days 1, 2, 3, or 4 of S4
Description: Cells of the human embryonic stem cell line H1 at various passages (passage 40 to passage 52) were seeded as single cells at a density of 100,000 cells/cm^2 on MATRIGEL™ (1:30 dilution) coated dishes in mTesr™1 media and 10 μM of Y27632. Forty eight hours post seeding, cultures were differentiated into pancreatic endocrine lineage as follows: • a. Stage 1 (Definitive Endoderm (DE)−4 days): Prior to start of DE, the cultures were washed and incubated with incomplete PBS (no Mg or Ca) for 30 seconds followed by addition of the stage 1 media. Human embryonic stem cells cultured as single cells on MATRIGEL™-coated dishes were treated with MCDB-131 medium supplemented with 0.1% fatty acid-free BSA, 0.0012 g/ml sodium bicarbonate, 1× GLUTAMAX™, 2.5 mM D-Glucose, 100 ng/ml GDF8, and 1 μM MCX compound (GSK3B inhibitor) for one day. Cells were then treated with MCDB-131 medium supplemented with 0.1% fatty acid-free BSA, 0.0012 g/ml sodium bicarbonate, 1× GLUTAMAX™, 2.5 mM glucose, and 100 ng/ml GDF8 for days 2-4. • b. Stage 2 (Primitive gut tube−3 days): Stage 1 cells were treated with MCDB-131 medium supplemented with 0.1% fatty acid-free BSA, 0.0012 g/ml sodium bicarbonate, 1× GLUTAMAX™, 2.5 mM D-Glucose, and 50 ng/ml FGF7 for three days. • c. […]

c1ccc2c(-c3cnn4cc(-c5ccc(N6CCNCC6)cc5)cnc34)ccnc2c1 [LDN-193189]
expression of endocrine markers: prolong | expression of SOX2 (at S4-S5): low expression
